The text below walks through data of ChEMBL document CHEMBL1134506, “Design and synthesis of 2-methyl-2-[4-(2-[5-methyl-2-aryloxazol-4-yl]ethoxy)phenoxy]propionic acids: a new class of dual PPARalpha/gamma agonists” (J Med Chem, 2001).

The target of experiment [1] is T1, Peroxisome proliferator-activated receptor alpha (Homo sapiens, UniProt Q07869).
T1 sequence (Q07869 whole entry): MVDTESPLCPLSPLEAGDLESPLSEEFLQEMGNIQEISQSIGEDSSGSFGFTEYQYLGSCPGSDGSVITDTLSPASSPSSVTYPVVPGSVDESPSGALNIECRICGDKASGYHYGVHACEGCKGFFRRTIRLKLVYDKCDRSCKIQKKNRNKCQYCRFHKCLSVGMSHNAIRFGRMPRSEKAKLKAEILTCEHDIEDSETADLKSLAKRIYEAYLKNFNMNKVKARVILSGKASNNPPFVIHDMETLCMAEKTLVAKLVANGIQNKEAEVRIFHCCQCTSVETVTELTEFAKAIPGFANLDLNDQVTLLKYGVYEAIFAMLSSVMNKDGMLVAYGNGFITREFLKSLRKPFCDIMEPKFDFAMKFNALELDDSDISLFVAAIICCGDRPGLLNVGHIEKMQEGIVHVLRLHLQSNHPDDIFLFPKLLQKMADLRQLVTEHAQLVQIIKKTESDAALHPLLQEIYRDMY
Description: (§1) Binding affinity at human PPAR alpha.

Experiment [2] concerns the target T2, Peroxisome proliferator-activated receptor gamma (Homo sapiens, UniProt P37231).
T2 sequence (P37231 whole entry): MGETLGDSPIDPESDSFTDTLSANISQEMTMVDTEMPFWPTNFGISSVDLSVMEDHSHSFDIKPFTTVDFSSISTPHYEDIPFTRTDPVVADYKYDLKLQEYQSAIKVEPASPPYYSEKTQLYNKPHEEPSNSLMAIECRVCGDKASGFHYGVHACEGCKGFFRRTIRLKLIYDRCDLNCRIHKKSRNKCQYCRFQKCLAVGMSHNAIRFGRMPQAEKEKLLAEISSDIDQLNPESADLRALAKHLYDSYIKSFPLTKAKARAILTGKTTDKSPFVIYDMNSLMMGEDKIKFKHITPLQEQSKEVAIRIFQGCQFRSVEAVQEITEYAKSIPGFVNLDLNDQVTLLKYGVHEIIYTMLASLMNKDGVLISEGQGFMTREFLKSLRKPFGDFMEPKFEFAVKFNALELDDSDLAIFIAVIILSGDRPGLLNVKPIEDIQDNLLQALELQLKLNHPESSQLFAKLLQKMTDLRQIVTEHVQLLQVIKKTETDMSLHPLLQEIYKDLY

Experiment [3] concerns the target T1, Peroxisome proliferator-activated receptor alpha. The experiment can be described thus: Binding affinity towards human […] proliferator activated receptor alpha (hPPARalpha).
The target in experiment [4] is T2, Peroxisome proliferator-activated receptor gamma. The source holds these as a separate data set.
Description: Binding affinity at human peroxidase proliferator activated receptor gamma (hPPARgamma)
In experiment [5] the target is T3, Peroxisome proliferator-activated receptor alpha (Homo sapiens) (UniProt Q07869).
T3 sequence (whole entry): T1 sequence (Q07869 whole entry)
Described as §1.

Experiment [6] has as its target T1, Peroxisome proliferator-activated receptor alpha. Description: Binding affinity towards human […] proliferator activated receptor alpha (hPPARalpha); No binding.
Experiment [7] concerns the target T2, Peroxisome proliferator-activated receptor gamma. The experiment can be described thus: Binding affinity at human […] proliferator activated receptor gamma (hPPARgamma); No binding.
For experiment [8], the target named is T4, Peroxisome proliferator-activated receptor gamma (Homo sapiens) (UniProt P37231).
T4 sequence (whole entry): T2 sequence (P37231 whole entry)
The experiment can be described thus: Binding affinity at human PPAR gamma.

As a reminder, the EC50 is the concentration needed to bring the measured effect to its halfway point. In general, IC50 refers to the concentration at which inhibition is half-maximal. A lower IC50 goes with higher potency. Turning to `Cc1oc(-c2ccccc2)nc1CCOc1ccc(OC(C)C(=O)O)cc1` (stereo unspecified), the EC50 amounted to 0.625 µM in experiment [1] and 2.75 µM in experiment [2]. For the same molecule, the IC50 in experiment [3] was 2.03 µM; in experiment [4], 3.12 µM.
For `Cc1oc(-c2ccc(Br)cc2)nc1CCOc1ccc(OC(C)(C)C(=O)O)cc1`, the values for the EC50 in experiment [1] and in experiment [2] were 0.0619 µM and 1.72 µM, respectively. Moreover, the IC50 in experiment [3] was 0.242 µM; in experiment [4], 4.56 µM.
On to `Cc1oc(-c2ccc(-c3ccccc3)cc2)nc1CCOc1ccc(OC(C)(C)C(=O)O)cc1`, for which the EC50 was found to be 0.149 µM in experiment [1] and 0.882 µM in experiment [2]. Besides, the IC50 in experiment [3] was found to be 0.174 µM; in experiment [4], 0.548 µM.
Turning to `Cc1c(C)c2c(c(C)c1O)CCC(C)(COc1ccc(CC3SC(=O)NC3=O)cc1)O2` (stereo unspecified) [TROGLITAZONE], in experiment [5], the Efficacy was < 20%. Besides, the IC50 result in experiment [6] is “Not Active”.
As for `CC(C)(Oc1ccc(C(=O)c2ccc(Cl)cc2)cc1)C(=O)O` [FENOFIBRIC ACID], the IC50 entry was “Not Active” in experiment [7] and 68 µM in experiment [3]. In addition, the Efficacy in experiment [8] and in experiment [5] was < 20% each time.
Take `Cc1oc(-c2ccccc2)nc1CCOc1ccc(OCC(=O)O)cc1`: the EC50 in experiment [1] was determined as 2.75 µM. The same molecule displayed an Efficacy in experiment [8] of 20%. Moreover, the IC50 in experiment [3] and in experiment [4] was 10.6 µM each time.
On to `Cc1oc(-c2ccccc2)nc1CCOc1ccc(OC(C)(C)C(=O)O)cc1`, for which the EC50 was 0.717 µM in experiment [1] and 2.06 µM in experiment [2]. Further, the values for the IC50 in experiment [3] and in experiment [4] were 1.44 µM and 3.02 µM, respectively.
Turning to `CN(CCOc1ccc(CC2SC(=O)NC2=O)cc1)c1ccccn1` (stereo unspecified), in experiment [5], the Efficacy worked out at 20%.
For the molecule `Cc1oc(-c2ccccc2)nc1CCOc1ccc(CC2SC(=O)NC2=O)cc1` (stereo unspecified), the EC50 in experiment [1] worked out at 0.771 µM; in experiment [2] it was 0.008 µM. The IC50 in experiment [3] worked out at 4.09 µM; in experiment [4], 0.014 µM.
